The values below come from BindingDB's records for PubMed 9023294 (Sanofi Recherche, 1997).

As a reminder, the Ki is the dissociation constant of the complex between target and ligand, obtained from inhibition or displacement. Low values mean a stronger hold on the target, high ones a looser hold on the target.

The target of assay [1] is T1, Neurotensin/neuromedin N (Human, UniProt P30990).
T1 sequence (P30990 whole entry): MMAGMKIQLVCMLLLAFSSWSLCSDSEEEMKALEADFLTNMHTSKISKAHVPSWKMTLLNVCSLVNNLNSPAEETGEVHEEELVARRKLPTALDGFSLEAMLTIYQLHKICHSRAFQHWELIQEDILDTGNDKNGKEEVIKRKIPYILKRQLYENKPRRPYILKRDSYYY

Assay [2] concerns the target Neurotensin (Cavia porcellus, UniProt P32560).

`COc1cccc(OC)c1-c1cc(C(=O)NC2(C(=O)O)C3CC4CC(C3)CC2C4)nn1-c1ccc(C(=O)N(C)CCCN(C)C)cc1C(C)C` (stereo not drawn) [SR142948A]: the Ki in assay [1] worked out at 0.28 nM; in assay [2], 0.17 nM.
In assay [2], `COc1cccc(OC)c1-c1cc(C(=O)NC2(C(=O)O)C3CC4CC(C3)CC2C4)nn1-c1ccnc2cc(Cl)ccc12` (stereo not drawn) had a Ki of 3.9 nM.
